Experiments:
[1] = test system: Pioneer McIntosh apple trees; experiment: Example 4: fruit set of Pioneer McIntosh apple trees after BA and ABA sprays; format: in vivo; conditions: 75 ppm BA whole-tree spray, 300 ppm ABA on tagged limbs, or sequential BA then ABA, applied at 9 mm fruit size; for % Fruit Set: counted after June drop
Description: Pioneer McIntosh apple trees were selected for uniformity of bloom and 2 limbs per tree were tagged and all blossom clusters on the tagged limbs were counted. Treatments were applied to four replicate trees per treatment when the average fruit size was 9 mm. BA at 75 ppm was applied as a dilute solution sprayed on whole trees to the drip point on two of the four trees in each replication. […] The solution was shaken and then allowed to sit for 5 minutes. […] The fourth tree in each block received no spray and served as the control. At the end of the June drop period in July, all fruit on the tagged limbs was counted and recorded.

Empire apple trees = experiment: Example 5: crop load and fruit size of Empire apple trees; format: in vivo; conditions: 100 ppm BA or mixture of 100 ppm BA and 1000 ppm ABA; sprayed at 8 mm fruit size; harvested at maturity
Description: Empire apple trees were selected for tree size and uniformity of bloom. Treatments were applied to five replicate trees per treatment when the average fruit size was 8 mm. BA at 100 ppm was applied as a dilute solution sprayed on whole trees to the drip point on five trees. […] Five trees were left untreated to act as control trees. At the end the season when the fruit were mature all the fruit were harvested and the number of fruit per tree and the average fruit size were determined.

Cabernet Franc grapes [2] = experiment: Example 1: dipping Cabernet Franc flower clusters at full bloom, berry number and cluster compactness; format: in vivo, grape; conditions: clusters dipped at full bloom; 10 ppm GA3, 300 ppm ABA or both together; harvested at commercial maturity; n = 10 clusters
Description: One cluster was tagged and treated with each of the treatments on each of 10 vines. The clusters were harvested at commercial maturity. Cluster compactness was assessed by counting the number of berries per cluster and measuring the total rachis length of each cluster and then calculating the number of berries per cm of rachis.

Cabernet Franc grapes [3] = experiment: Example 2: dipping Cabernet Franc flower clusters at full bloom, berry number and cluster compactness; format: in vivo, grape; conditions: clusters dipped at full bloom; 300 ppm ABA, 10 ppm GA3 or 300 ppm ABA mixed with 10 ppm GA3; n = 10 clusters
Description: One cluster was tagged and treated with each of the treatments on each of 10 vines. The clusters were harvested at commercial maturity and berry number and cluster compactness were evaluated.

[4] = test system: European seedless cucumber (var. Flamingo) plants; experiment: Example 6: foliar spray with ABA, abortion of cucumber fruits; format: in vivo; conditions: ABA 100 ppm sprayed to drip at 20 node growth stage
Description: European seedless cucumber (var. Flamingo) plants were grown in a greenhouse.

Thompson Seedless grape = experiment: Example 3: spraying Thompson Seedless grape vines, bunch compactness at harvest; format: in vivo; conditions: sprayed twice, at 70% bloom and 100% bloom
Description: The applications were made twice, once at 70% bloom and once at 100% bloom. Grape bunch compactness was rated at harvest and the average bunch mass and the average number of berries per gram of rachis was determined.

Row | Molecule | Average Fruit Weight [1] | % Fruit Set [1] | Average Fruit Weight (Empire apple trees) | Number of Fruit per Tree (Empire apple trees) | Number of berries per cluster (Cabernet Franc grapes [2]) | Number of berries per cm rachis (Cabernet Franc grapes [2]) | Number of berries per cluster (Cabernet Franc grapes [3]) | Number of berries per cm rachis (Cabernet Franc grapes [3]) | Rate of fruit abortion compared to the control plants [4] | Percentage of basal 18 cucumber fruits per plant that aborted ([4]; greenhouse, n = 5 replicate plants) | Bunch Compactness (Thompson Seedless grape; rating scale 1 = very loose bunch, 5 = very tight bunch, rated at harvest) | Average bunch mass (Thompson Seedless grape; at harvest) | Average number of berries per gram of rachis (Thompson Seedless grape; at harvest)
1 | c1ccc(CNc2ncnc3nc[nH]c23)cc1 [BA, benzyladenine] | 190 g | 75% | 123 g | 137 |  |  |  |  |  |  |  |  | 
2 | (S)-5-(1-hydroxy-2,6,6,-trimethyl-4-oxo-2-cyclohexen-1-yl)-3-methyl-(2Z,4E)-pentadienoic acid [ABA] | 146 g | 25% |  |  | 53.0 | 1.87 | 54.3 | 2.0 | twice | 68% |  |  | 
3 | gibberellic acid [GA3] |  |  |  |  | 34.8 | 1.33 | 37.6 | 1.35 |  |  | 2.3 | 830 g | 5.7

Reference: patent US8440592B2, “Use of abscisic acid combinations for thinning” (Valent BioSciences Corporation, priority 2007, dated 2013)
